The values that follow come from US20170368134A1, “PROTEASOME INHIBITORS FOR TREATING A DISORDER RELATED TO AN ACCUMULATION OF NON-DEGRADED ABNORMAL PROTEIN OR A CANCER” (UNIVERSITÉ D'AIX-MARSEILLE, priority 2015, published 2017).

Data set [1] is described as follows: Tolerability of intramuscular MG132 in Lmna G609G/G609G mice. Format: in vivo, mouse. As to conditions: 1 or 10 μg/Kg intramuscular. As to the method:
(§1) Knock-in mouse model (Lmna^G609G/G609G) carrying the c.1827C>T (p.Gly609Gly) mutation in the endogenous Lmna gene, corresponding to the human HGPS mutation c.1824C>T (p.Gly609Gly) have been described previously (31). MG132 (1 or 10 μg/Kg body weight) was injected under isoflurane anesthesia into the right gastrocnemius muscle of […] homozygous knock-in mice (Lmna^G609G/G609G) 3 times per week for 2 weeks. Contralateral muscle served as control (DMSO). MG132 was dissolved in dimethyl sulfoxide (DMSO) and then diluted in 100 μl sterile phosphate-buffered saline (PBS) for intramuscular injection. […] Animal experiments have been carried out in compliance with the European guidelines for the care and use of laboratory animals (EU directive 2010/63/EU) and in accordance with the recommendations provided by the guide for the care and use of the laboratory animals of the French national Institute for Health and Medical Research (INSERM) and the ethical committee of Aix-Marseille University.

The test system of data set [2] is HGPS fibroblasts, HGPS derived iPS-MSC or iPS-VSMC. Put plainly: CellTiter-Glo Luminescent Cell Viability Assay. Type of data set: cell-based, human. As to conditions: 24 h, doses used in this study. As to the method:
HGPS fibroblasts, HGPS derived iPS-MSC or iPS-VSMC viability was measured at 24 h post treatment with MG132 at the indicated concentrations using CellTiter-Glo Luminescent Cell Viability Assay. Results are reported as viability percentage of MG132-treated cells relative to untreated cells.
(In general: In ATP-based viability assays light output follows the ATP content of the culture.)

For the next data set, the system named is progerin. Kind of data set: Immunofluorescence of subcellular progerin localization. Format: cell-based, human. Conditions: HGPS cell lines, 48 h MG132 exposure. As to the method: Cells collected by centrifugation were spread onto polylysine-coated slides by centrifugation (300 rpm for 5 minutes) with a cytospin (Shandon). Cells were then fixed at room temperature for 10 minutes in 2% (w/v) paraformaldehyde in PBS pH 7.2. Slides were stored at −80° C. prior to use. Cells were permeabilized using 100 μL permeabilization buffer (0.5% Triton X-100, 50 mM NaCl, 300 mM sucrose, 20 mM HEPES pH 7.5, 3 mM MgCl2) for 3 minutes at RT. Non-specific antibody binding was blocked with 3% Bovine Serum Albumin in PBS (w/v) (PBS-BSA) for 30 minutes. The permeabilized cells were incubated with the primary antibodies for 3 h at 37° C. After washing, the cells were then incubated with secondary antibodies (A11001, A11058, Life Technologies; 1/400) for 20 minutes at 37° C. Nuclei were stained with DAPI (50 ng/ml) diluted in Vectashield (Abcys) for 10 minutes at RT. Samples were fixed in 4% paraformaldehyde for 5 min. […]
It has been reported that the MG132 can lead to PML-NBs component proteins being translocated into the nucleolus. […] Therefore, nucleolus might function as an alternative sequestration site that immobilizes and temporarily stores accumulated progerin when proteasome-dependent degradation is blocked, as the inventors detected PML and LC3B cytosolic colocalization upon 24 h MG132 treatment (data not shown). […]

For a further data set, the system named is lamin C mRNA. Kind of data set: qRT-PCR of lamin C transcripts in HGPS cells. Format: cell-based, human. As to conditions: 10 μM MG132 time-course. The procedure:
Total RNA was isolated using the RNeasy plus extraction kit (Qiagen, Valencia, Calif.). 1 μg of RNA was reverse transcribed using the High Capacity cDNA Reverse Transcription Kit (Applied Biosystems). Real time PCR amplification was carried out with the TaqMan® Gene Expression Master Mix (Applied Biosystems) on a LightCycler 480 (Roche, Germany) using pre-designed primers for GAPDH (Hs00266705_g1), Progerin (F: […] (SEQ ID NO:3) R: […] (SEQ ID NO:4) and probe: […] (SEQ ID NO:5)), Lamin A (F: […] (SEQ ID NO:6) R: […] (SEQ ID NO:7) and probe: […] (SEQ ID NO:8)) and lamin C (F: […] (SEQ ID NO:9) R: […] (SEQ ID NO:10) and probe: […] (SEQ ID NO:11)) (Applied Biosystems) using the program: UNG incubation at 50° C. for 2 minutes, initial denaturation at 95° C. for 10 minutes, 40 cycles of amplification: denaturation at 95° C. for 15 seconds and annealing at 60° C. for 1 minute. All PCR reactions were performed in triplicate. Threshold cycle (Ct) values were used to calculate relative mRNA expression by the 2-ΔΔ^T relative quantification method with normalization to GAPDH expression.
On the technique in general: In qPCR the cycle at which signal appears reflects the starting amount.

Another data set has as its system lamin C. Put plainly: Intramuscular MG132 in Lmna G609G/G609G mice, lamin C in gastrocnemius muscle. Type of data set: in vivo, mouse. As to the method: (A) Lamin A, progerin, lamin C and SRSF-1 specific bands, corresponding to DMSO-treated left muscle (−) and 1 μg/Kg MG132-treated right muscle (+), were quantified by ImageJ software and their expression levels were normalized to GAPDH values.
as §1

The subject of a further data set is SRSF-1. Put plainly: SRSF-1 levels in HGPS fibroblasts, iPS-MSC and iPS-VSMC. Conditions: data not shown. Format: cell-based, human. As to the method:
Generation of induced pluripotent stem cells (iPS) by reprogramming was carried out using fibroblasts isolated from HGPS patient biopsies performed in the Assistance Publique Hopitaux de Marseille (13-8243) or provided by Coriell Institute (Camden, USA) (AG01972). Cell lines were reprogrammed to iPSC using Yamanaka's original method based on retrovirus-mediated transfection of four transcription factors, namely Oct3/4, Sox2, c-Myc, and Klf4 (41). The iPSC lines were amplified up to the 15th passage before differentiation.
HGPS iPSC were grown on STO mouse fibroblasts, inactivated with […] mitomycin C, seeded at 30,000/cm2 and grown as previously described (42). For differentiation, iPSC were differentiated into mesenchymal stem cells (MSC-iPSC) using directed protocols for differentiation previously published (43-45). VSMC were obtained from iPSC by fluorescent-activated cell sorting (FACS) separation of CD31+ cells (46).

Peptide text beside a SMILES is read from it. * marks the point of attachment. Cbz = O=C(OCc1ccccc1)*

For the molecule `CC(C)C[C@@H](C=O)NC(=O)[C@H](CC(C)C)NC(=O)[C@H](CC(C)C)NC(=O)OCc1ccccc1` [MG132, Z-Leu-Leu-Leu-al] (Cbz-Leu-Leu-Leu-aldehyde), the “apparent damage or stress responses” value in data set [1] was “Neither vehicle alone nor MG132 treatment produced any apparent damage or stress responses”. Moreover, in data set [2], the viability / mortality entry is on record as “do not induce significant mortality”. In the data set on progerin, the subcellular progerin localization entry was “progerin accumulates into autophagic vacuoles”. The “lamin C transcript levels” value in the data set on lamin C mRNA is reported as “much less pronounced decrease of lamin C transcript levels”. Besides, the “lamin C level in treated muscle” value is listed as “decrease of lamin C” with lamin C (1 μg/Kg intramuscular, change not significant) and “decrease in lamin C” in the data set on lamin C (10 μg/kg body weight intramuscular). For the same molecule, in the data set with SRSF-1, the SRSF-1 levels entry is on record as “decreased”.
